In US10800792B2, “Inhibitors of Bruton's tyrosine kinase and method of their use” (JANSSEN PHARMACEUTICA NV, priority 2015, dated 2020):

target: unphosphorylated-BTK kinase domain (UP-BTK), GST-tagged human BTK (389-659aa) (Homo sapiens (Human), UniProt Q06187); assay: BTK kinase Lanthascreen binding assay; details: Lanthascreen tracer competition, 60 minutes incubation; pIC50 = negative log of the IC50 in molar
In short: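 Values are pIC50, i.e. negative log of IC50 in molar, derived from concentration–response fitting. Each compound competes with a fluorescently labelled tracer for the unphosphorylated kinase domain.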

Chain of unphosphorylated-BTK kinase domain (UP-BTK), GST-tagged human BTK (389-659aa) (Q06187 389-659): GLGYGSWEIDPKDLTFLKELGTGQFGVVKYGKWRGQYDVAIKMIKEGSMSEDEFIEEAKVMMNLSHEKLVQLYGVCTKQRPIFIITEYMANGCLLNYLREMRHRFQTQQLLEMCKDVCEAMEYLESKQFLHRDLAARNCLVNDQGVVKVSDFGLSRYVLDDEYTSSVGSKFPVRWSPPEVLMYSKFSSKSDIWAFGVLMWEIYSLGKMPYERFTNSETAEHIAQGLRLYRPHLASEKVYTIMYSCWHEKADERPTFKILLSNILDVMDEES

| SMILES | BTK_I_binding pIC50 |
| --- | --- |
| C=CC(=O)N1CCC[C@@H](NC(=O)c2sc3nccc4c3c2NC(=O)N4c2ccc(OC)cc2C)C1 [Example 694, (R)—N-(1-Acryloylpiperidin-3-yl)-5-(4-methoxy-2-methylphenyl)-4-oxo-4,5-dihydro-3H-1-thia-3,5,8-triazaacenaphthylene-2-carboxamide] | 7.1 |
| Cc1ccc(Oc2ccccc2)cc1N1C(=O)Nc2c(C(=O)N[C@@H]3CCCN(C(=O)/C(C#N)=C/C4CC4)C3)sc3nccc1c23 (racemic) [Example 875, (E)-N-(1-(2-Cyano-3-cyclopropylacryloyl)piperidin-3-yl)-5-(2-methyl-5-phenoxyphenyl)-4-oxo-4,5-dihydro-3H-1-thia-3,5,8-triazaacenaphthylene-2-carboxamide] | 7.2 |
| C=CC(=O)N1C[C@H](NC(=O)c2sc3nccc4c3c2NC(=O)N4c2cccc(-c3cccc(F)c3F)c2)C[C@H](OC)C1 [Example 679, N-((3R,5S)-1-Acryloyl-5-methoxypiperidin-3-yl)-5-(2′3′-difluoro-[1,1′-biphenyl]-3-yl)-4-oxo-4,5-dihydro-3H-1-thia-3,5,8-triazaacenaphthylene-2-carboxamide] | 7.8 |

same assay, conditions: pIC50 = negative log of the IC50 in molar; 60 minutes incubation, 50 nM Tracer 236

| SMILES | BTK_I_binding pIC50 |
| --- | --- |
| COC(C)(C)/C=C(\C#N)C(=O)N1CCC[C@@H](NC(=O)c2sc3nccc4c3c2NC(=O)N4c2ccc(Oc3ccccc3)cc2C)C1 [Example 40, (R,E)-N-(1-(2-Cyano-4-methoxy-4-methylpent-2-enoyl)piperidin-3-yl)-5-(2-methyl-4-phenoxyphenyl)-4-oxo-4,5-dihydro-3H-1-thia-3,5,8-triazaacenaphthylene-2-carboxamide] | 7.6 |
| C=CC(=O)N1CC[C@@H](NC(=O)c2sc3nccc4c3c2NC(=O)N4c2c(C)cc(Oc3ccccc3)cc2F)C1 [Example 45, (R)—N-(1-Acryloylpyrrolidin-3-yl)-5-(2-fluoro-6-methyl-4-phenoxyphenyl)-4-oxo-4,5-dihydro-3H-1-thia-3,5,8-triazaacenaphthylene-2-carboxamide] | 7.1 |
| N#C/C(=C\C1CC1)C(=O)N1CCC[C@@H](NC(=O)c2sc3nccc4c3c2NC(=O)N4c2ccc(Oc3ccccc3)cc2F)C1 [Example 79, (R,E)-N-(1-(2-Cyano-3-cyclopropylacryloyl)piperidin-3-yl)-5-(2-fluoro-4-phenoxyphenyl)-4-oxo-4,5-dihydro-3H-1-thia-3,5,8-triazaacenaphthylene-2-carboxamide] | 7.5 |
| Cc1cc(Oc2ccccc2)ccc1N1C(=O)Nc2c(C(=O)N[C@@H]3CCCN(C(=O)[C@H]4CCN(C)C4)C3)sc3nccc1c23 [Example 125, 5-(2-Methyl-4-phenoxyphenyl)-N—((R)-1-((S)-1-methylpyrrolidine-3-carbonyl)piperidin-3-yl)-4-oxo-4,5-dihydro-3H-1-thia-3,5,8-triazaacenaphthylene-2-carboxamide] | 7.2 |

same assay, conditions: unphosphorylated-BTK kinase domain, 50 nM Tracer 236, 60 minutes; pIC50 = negative log of the IC50 in molar

| SMILES | BTK_I_binding pIC50 |
| --- | --- |
| C=CC(=O)N1CC[C@@H](NC(=O)c2sc3nccc4c3c2NC(=O)N4c2ccccc2F)C1 [Example 301, (R)—N-(1-Acryloylpyrrolidin-3-yl)-5-(2-fluorophenyl)-4-oxo-4,5-dihydro-3H-1-thia-3,5,8-triazaacenaphthylene-2-carboxamide] | 6.0 |
| O=C(N[C@@H]1CCCNC1)c1sc2nccc3c2c1NC(=O)N3Cc1ccc(Oc2ccccc2)cc1 [Example 412, (R)-4-Oxo-5-(4-phenoxybenzyl)-N-(piperidin-3-yl)-4,5-dihydro-3H-1-thia-3,5,8-triazaacenaphthylene-2-carboxamide] | <5 |
| C=CC(=O)N1CCC[C@@H](NC(=O)c2sc3nccc4c3c2NC(=O)N4c2ccc3c(c2)OC(F)(F)O3)C1 [Example 525, (R)—N-(1-Acryloylpiperidin-3-yl)-5-(2,2-difluorobenzo[d][1,3]dioxol-5-yl)-4-oxo-4,5-dihydro-3H-1-thia-3,5,8-triazaacenaphthylene-2-carboxamide] | 7.5 |
